Laboratory results taken from ChEMBL document CHEMBL5725619, “Substituted oxopyridine derivatives” (2018).

Assay: Plasma Kallikrein Assay: Test substances are dissolved in dimethyl sulphoxide and serially diluted in dimethyl sulphoxide (3000 μM to 0.0078 μM; resulting final concentrations in the test: 50 μM to 0.00013 μM). 1 μl of the diluted substance solutions is placed into each of the wells of white microtitre plates from Greiner (384 wells). 20 μl of assay buffer (50 mM Tris/HCl pH 7.4; 100 mM sodium chloride solution; 5 mM of calcium chloride solution; 0.1% of bovine serum albumin) and 20 μl of plasma kallikrein from Kordia (0.6 nM in assay buffer) are then added successively. After 15 min of incubation, the enzyme reaction is started by addition of 20 μl of the substrate H-Pro-Phe-Arg-AMC dissolved in assay buffer (10 μM in assay buffer) from Bachem, the mixture is incubated at room temperature (22° C.) for 30 min and fluorescence is then measured (excitation: 360 nm, emission: 460 nm). The measured emissions of the test batches with test substance are compared to those of control batches without test substance (only dimethyl sulphoxide instead of test substance in dimethyl sulphoxide), and IC50 values are calculated from the concentration/activity relationships.

IC50: 100 nM
Compound: COCCC(C(=O)Nc1cc(F)c(C(N)=O)s1)n1cc(OC)c(-c2cc(Cl)ccc2C#N)cc1=O (stereo unspecified)
